Literature values as cited in paper PMC9516332 (Frontiers in Oncology, 2022).
Read-outs that look alike come from different tables or passages of the source.

What was measured:
Details in all cases: cited from earlier work
[1] = target: panel of 255 wild-type kinases (Homo sapiens, UniProt P19784)
[2] = target: panel of 255 wild-type kinases (Homo sapiens, UniProt P53779)
[3] = target: panel of 255 wild-type kinases (Homo sapiens, UniProt Q9H4B4)
[4] = target: panel of 255 wild-type kinases (Homo sapiens, UniProt P00519)
[5] = target: T1, panel of 255 wild-type kinases (Homo sapiens, UniProt Q9NZJ5)
T1 sequence (Q9NZJ5 30-1116): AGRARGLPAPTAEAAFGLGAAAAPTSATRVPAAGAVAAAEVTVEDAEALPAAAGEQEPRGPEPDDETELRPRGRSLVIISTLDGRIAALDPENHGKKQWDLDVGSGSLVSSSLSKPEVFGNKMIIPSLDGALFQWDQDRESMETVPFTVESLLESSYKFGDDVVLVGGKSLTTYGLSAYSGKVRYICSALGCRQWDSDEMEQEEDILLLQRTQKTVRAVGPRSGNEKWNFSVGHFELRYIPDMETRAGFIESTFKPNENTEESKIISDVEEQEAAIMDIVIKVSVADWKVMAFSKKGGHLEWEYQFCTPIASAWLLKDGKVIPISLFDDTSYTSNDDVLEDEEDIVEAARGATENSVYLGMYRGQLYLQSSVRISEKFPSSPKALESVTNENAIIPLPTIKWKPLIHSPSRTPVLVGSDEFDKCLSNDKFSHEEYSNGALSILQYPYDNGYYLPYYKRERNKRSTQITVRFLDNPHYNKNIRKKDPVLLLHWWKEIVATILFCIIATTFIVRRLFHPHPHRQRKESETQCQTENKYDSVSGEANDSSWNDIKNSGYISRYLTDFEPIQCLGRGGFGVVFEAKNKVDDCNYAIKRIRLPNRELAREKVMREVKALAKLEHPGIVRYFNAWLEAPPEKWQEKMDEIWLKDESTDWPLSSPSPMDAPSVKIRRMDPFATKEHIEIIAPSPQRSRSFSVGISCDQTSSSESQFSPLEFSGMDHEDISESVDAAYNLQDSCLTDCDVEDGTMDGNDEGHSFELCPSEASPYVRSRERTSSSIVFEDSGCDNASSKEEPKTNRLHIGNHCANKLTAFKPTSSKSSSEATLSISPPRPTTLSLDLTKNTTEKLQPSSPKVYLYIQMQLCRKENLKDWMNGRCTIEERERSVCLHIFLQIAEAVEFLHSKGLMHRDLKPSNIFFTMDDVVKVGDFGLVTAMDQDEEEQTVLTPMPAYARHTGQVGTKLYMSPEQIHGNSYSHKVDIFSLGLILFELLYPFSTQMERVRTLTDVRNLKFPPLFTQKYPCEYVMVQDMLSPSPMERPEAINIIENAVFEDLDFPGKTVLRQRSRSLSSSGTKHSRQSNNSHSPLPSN

[6] = target: panel of 255 wild-type kinases (Homo sapiens, UniProt P27448)
[7] = kinase CK2α2/β, 1 µmol/L single concentration, ref DOI: 10.1158/1535-7163.MCT-18-0877
[8] = kinase JNK3, 1 µmol/L single concentration, ref DOI: 10.1158/1535-7163.MCT-18-0877
[9] = kinase PLK3, 1 µmol/L single concentration, ref DOI: 10.1158/1535-7163.MCT-18-0877
[10] = ABL kinase assay, 1 µmol/L single concentration, ref DOI: 10.1158/1535-7163.MCT-18-0877
[11] = kinase PEK, 1 µmol/L single concentration, ref DOI: 10.1158/1535-7163.MCT-18-0877
[12] = MARK3, 1 µmol/L single concentration, ref DOI: 10.1158/1535-7163.MCT-18-0877
[13] = kinase CK2α2/β, 1 µmol/L single concentration, ref DOI: 10.1371/journal.pone.0092146
[14] = kinase JNK3, 1 µmol/L single concentration, ref DOI: 10.1371/journal.pone.0092146
[15] = kinase PLK3, 1 µmol/L single concentration, ref DOI: 10.1371/journal.pone.0092146
[16] = kinase PEK, 1 µmol/L single concentration, ref DOI: 10.1371/journal.pone.0092146
[17] = MARK3, 1 µmol/L single concentration, ref DOI: 10.1371/journal.pone.0092146
[18] = ABL kinase assay, 1 µmol/L single concentration, ref DOI: 10.1371/journal.pone.0092146

Row | SMILES | %-inhibition at 1 µmol/L, CK2α2/β [1, 7] | %-inhibition at 1 µmol/L, JNK3 [2, 8] | %-inhibition at 1 µmol/L, PLK3 [3, 9] | %-inhibition ABL [4, 10] | %-inhibition at 1 µmol/L, PEK [5, 11] | %-inhibition, MARK3 [6, 12] | other results
1 | CC#CC(=O)N1CCC[C@H]1c1nc(-c2ccc(C(=O)Nc3ccccn3)cc2)c2c(N)nccn12 [acalabrutinib] | 10% | -0.893% | 1.76% | -2.81% | 8% | -2.57% | –
2 | CCc1cc2c(cc1N1CCC(N3CCOCC3)CC1)C(C)(C)c1[nH]c3cc(C#N)ccc3c1C2=O [alectinib] | -3% | -0.533% | -4% | 5% | 9% | 9% | –
3 | COc1cc(N2CCC(N3CCN(C)CC3)CC2)ccc1Nc1ncc(Cl)c(Nc2ccccc2P(C)(C)=O)n1 [brigatinib] | – | – | – | – | – | – | %-inhibition at 1 µmol/L, CK2α2/β [1]: -4%; %-inhibition at 1 µmol/L, JNK3 [2]: 52%; %-inhibition at 1 µmol/L, PLK3 [3]: -2.57%; %-inhibition ABL [4]: 54%; %-inhibition at 1 µmol/L, PEK [5]: 18%; %-inhibition, MARK3 [6]: 99%
4 | Cc1cc(Nc2ncc(Cl)c(Nc3ccccc3S(=O)(=O)C(C)C)n2)c(OC(C)C)cc1C1CCNCC1 [ceritinib] | -6% | 16% | -0.156% | -1.61% | 9.5% | 10% | –
5 | O=C(c1ccc(F)c(F)c1Nc1ccc(I)cc1F)N1CC(O)([C@@H]2CCCCN2)C1 [cobimetinib] | -6% | -0.412% | 4% | -4% | 5% | -1.51% | –
6 | C[C@@H](Oc1cc(-c2cnn(C3CCNCC3)c2)cnc1N)c1c(Cl)ccc(F)c1Cl [crizotinib] | – | – | – | – | – | – | %-inhibition at 1 µmol/L, CK2α2/β [1, 13]: -10%; %-inhibition at 1 µmol/L, JNK3 [2, 14]: -1.87%; %-inhibition at 1 µmol/L, PLK3 [3, 15]: -2.24%; %-inhibition at 1 µmol/L, PEK [5, 16]: 1.1%; %-inhibition, MARK3 [6, 17]: 41%
7 | C=CC(=O)N1CCC[C@@H](n2nc(-c3ccc(Oc4ccccc4)cc3)c3c(N)ncnc32)C1 [ibrutinib] | -7% | 1% | 1.53% | 8% | 7.47% | -6% | –
8 | CO[C@@H]1[C@H](N(C)C(=O)c2ccccc2)C[C@H]2O[C@]1(C)n1c3ccccc3c3c4c(c5c6ccccc6n2c5c31)C(=O)NC4 [midostaurin] | 2% | – | -0.227% | 9% | 11% | – | –
9 | C=CC(=O)Nc1cc(Nc2nccc(-c3cn(C)c4ccccc34)n2)c(OC)cc1N(C)CCN(C)C [osimertinib] | 16% | 1.89% | 5% | 4.62% | 7% | 9% | –
10 | CC(=O)Nc1cccc(-n2c(=O)n(C3CC3)c(=O)c3c(Nc4ccc(I)cc4F)n(C)c(=O)c(C)c32)c1 [trametinib] | – | – | – | – | – | – | %-inhibition at 1 µmol/L, CK2α2/β [1, 13]: -5.29%; %-inhibition at 1 µmol/L, JNK3 [2, 14]: -2.37%; %-inhibition at 1 µmol/L, PLK3 [3, 15]: -6.59%; %-inhibition ABL [4, 18]: -8%; %-inhibition at 1 µmol/L, PEK [5, 16]: 1.13%; %-inhibition, MARK3 [6, 17]: -3.21%
11 | CCCS(=O)(=O)Nc1ccc(F)c(C(=O)c2c[nH]c3ncc(-c4ccc(Cl)cc4)cc23)c1F [vemurafenib] | – | – | – | – | – | – | %-inhibition at 1 µmol/L, CK2α2/β [1, 13]: -6.56%; %-inhibition at 1 µmol/L, JNK3 [2, 14]: 2.85%; %-inhibition at 1 µmol/L, PLK3 [3, 15]: -2.83%; %-inhibition ABL [4, 18]: 15%; %-inhibition at 1 µmol/L, PEK [5, 16]: 11%; %-inhibition, MARK3 [6, 17]: -0.226%
